Assay results: paper PMC7582507, “SARs for the Antiparasitic Plant Metabolite Pulchrol. Part 2: B- and C-Ring Substituents” (Molecules, 2020)
Like-named read-outs stand apart in the source and are kept apart here.

Experiments:
[1] = test system: Trypanosoma cruzi epimastigotes; assay: Trypanocidal activity against T. cruzi epimastigotes (XTT, 72 h); format: cell-based; details: for IC50: 72 h; for selectivity ratio at 72 h: mouse (RAW cells), Trypanosoma cruzi (parasite), RAW 264.7 macrophage cells versus T. cruzi epimastigotes, read-out: T. cruzi SI (selectivity index, cytotoxicity/anti-protozoal activity); for selectivity ratio at 72 h / T. cruzi SI (selectivity index, cytotoxicity/anti-protozoal activity): IC50 RAW cells / IC50 T. cruzi
Method: Cultures of Trypanosoma cruzi (epimastigotes, donated by the Parasitology Department of INLASA, Tc-INLASA, city, country), were maintained in medium LIT (pH 7.2), supplemented with 10% FBS and incubated at 26 °C. Medium changes were made every 72 h to maintain a viable parasitic population. Trypanocidal activity was determined according to Muelas-Serrano with some modifications. Samples were dissolved in DMSO (maximum final concentration 1%) at 10 mg/mL. Epimastigotes in logarithmic phase of growth, at a concentration of 3 × 10^6 parasites/mL, were distributed (100 μL/well) in 96-well flat bottom microtiter plates. Samples at different concentrations (3.1–100 μg/mL) were added (100 μL). Benznidazole (3.1–100 μg/mL) was used as the control drug. Assays were performed in triplicates. The microwell plates were incubated for 72 h at 26 °C. After incubation, a solution of XTT (1 mg/mL) in PBS (pH 7.0 at 37 °C) with PMS (0.06 mg/mL) was added (50 μL/well) and incubated for 4 h at 26 °C. The optical density of each well was measured and the IC50 values were calculated. A negative control experiments with only 1% DMSO was carried out, showing that the solvent by itself has no antiparasitic activity.

[2] = test system: Leishmania braziliensis promastigotes; assay: Leishmanicidal activity against L. braziliensis promastigotes (XTT, 72 h); details: for IC50: 72 h; for selectivity ratio at 72 h: mouse (RAW cells), Leishmania braziliensis (parasite), L. brasiliensis SI (selectivity index, cytotoxicity/anti-protozoal activity); for selectivity ratio at 72 h / L. brasiliensis SI (selectivity index, cytotoxicity/anti-protozoal activity): IC50 RAW cells / IC50 L. braziliensis
[3] = Cytotoxicity on RAW cells (resazurin, 72 h); details: mouse
[4] = test system: Leishmania amazonensis promastigotes; assay: Leishmanicidal activity against L. amazonensis promastigotes (XTT, 72 h); details: for L. amazoniensis SI (selectivity index, cytotoxicity/anti-protozoal activity) / selectivity ratio at 72 h: IC50 RAW cells / IC50 L. amazonensis; for IC50: 72 h; for selectivity ratio at 72 h: mouse (RAW cells), Leishmania amazonensis (parasite), L. amazoniensis SI (selectivity index, cytotoxicity/anti-protozoal activity)
[5] = test system: Raw 264.7 murine macrophage cell line; assay: Cytotoxicity on RAW cells (resazurin, 72 h); details: read-out: Cytotoxicity IC50; RAW cells, 72 h, average ± SD of at least three experiments
[6] = test system: Leishmania amazonensis promastigotes; details: stated as previously investigated and reported, read-out: IC50 against L. amazonesis promastigotes; cited from earlier work
[7] = test system: CB2 receptor; details: cited from earlier work
[8] = Trypanosoma cruzi, epimastigotes, average ± SD of at least three experiments, read-out: T. cruzi IC50
[9] = read-out: L. brasiliensis IC50, promastigotes, 72 h, average ± SD of at least three experiments
[10] = RAW 264.7 macrophage cells, Cytotoxicity IC50, RAW cells, 72 h, average ± SD of at least three experiments
[11] = read-out: L. amazoniensis IC50, promastigotes, average ± SD of at least three experiments
[12] = Leishmania amazonensis, read-out: L. amazoniensis IC50, promastigotes, 72 h, average ± SD of at least three experiments
[13] = epimastigotes, average ± SD of at least three experiments, read-out: T. cruzi IC50
[14] = read-out: L. brasiliensis IC50, promastigotes, average ± SD of at least three experiments

SMILES	IC50 [1, 8] [µM]	selectivity ratio at 72 h [1]	IC50 [2, 9] [µM]	selectivity ratio at 72 h [2]	IC50 at 72 h [3, 10] [µM]	IC50 at 72 h [3] [µM]	IC50 [4, 12] [µM]	selectivity ratio at 72 h [4]	also measured
COc1ccc2c(c1)-c1cc(CO)ccc1C(C)O2 (stereo not shown) [8b, (2-Methoxy-6-methyl-6H-benzo[c]chromen-9-yl)methanol]	35.9 ± 11.7	1	156 ± 23.4	0.2	37.1 ± 3.9	–	–	–	L. amazoniensis SI (selectivity index, cytotoxicity/anti-protozoal activity) [4]: 0.2; IC50 [4, 11]: 156 ± 58.5 µM
COc1ccc2c(c1)OC(C)(C)c1ccc(CO)cc1-2 [10a, (3-Methoxy-6,6-dimethyl-6H-benzo[c]chromen-9-yl)methanol]	88.4 ± 12.2	0.7	37.4 ± 1.1	1.6	–	59.2 ± 25.9	66.6 ± 7.4	0.9	–
Cc1ccc2c(c1)OC(C)(C)c1ccc(CO)cc1-2 [10d, (3,6,6-Trimethyl-6H-benzo[c]chromen-9-yl)methanol]	33 ± 3.9	1.1	40.1 ± 8.3	0.9	–	35.4 ± 7.9	51.9 ± 13.8	0.7	–
Cc1ccc2c(c1)-c1cc(CO)ccc1C(C)(C)O2 [10c, (2,6,6-Trimethyl-6H-benzo[c]chromen-9-yl)methanol]	31.5 ± 7.9	1.3	39.3 ± 2.4	1	39.3 ± 1.6	–	64.9 ± 12.6	0.6	–
CCC1Oc2ccc(OC)cc2-c2cc(CO)ccc21 (stereo not shown) [8e, (6-Ethyl-2-methoxy-6H-benzo[c]chromen-9-yl)methanol]	–	–	–	–	–	–	–	–	T. cruzi SI (selectivity index, cytotoxicity/anti-protozoal activity) [1]: 1.2; IC50 [1, 13]: 37 ± 0.7 µM; L. brasiliensis SI (selectivity index, cytotoxicity/anti-protozoal activity) [2]: 1.0; IC50 [2, 14]: 45.1 ± 19.2 µM; IC50 [5]: 44.4 ± 11.5 µM; L. amazoniensis SI (selectivity index, cytotoxicity/anti-protozoal activity) [4]: 0.6; IC50 [4, 11]: 70.3 ± 3.7 µM
CCCCCCCCCCCCCCCCOP(=O)([O-])OCC[N+](C)(C)C [Miltefosine, reference compound]	–	–	13 ± 1.2	–	–	–	–	–	–
COc1ccc2c(c1)-c1cc(CO)ccc1C(C)O2 (stereo not shown) [8c, (2-Methoxy-6-methyl-6H-benzo[c]chromen-9-yl)methanol]	–	–	–	–	–	–	–	–	T. cruzi SI (selectivity index, cytotoxicity/anti-protozoal activity) [1]: 0.8; IC50 [1, 13]: 67.1 ± 31.2 µM; L. brasiliensis SI (selectivity index, cytotoxicity/anti-protozoal activity) [2]: 0.4; IC50 [2, 14]: 129 ± 24.6 µM; IC50 [5]: 52.7 ± 9 µM; L. amazoniensis SI (selectivity index, cytotoxicity/anti-protozoal activity) [4]: 0.7; IC50 [4, 11]: 71.8 ± 12.5 µM
CC1(C)Oc2ccccc2-c2cc(CO)ccc21 [10e, (6,6-Dimethyl-6H-benzo[c]chromen-9-yl)methanol]	50.8 ± 6.2	1.2	74.9 ± 16.6	0.8	62.4 ± 6.2	–	91.6 ± 5.4	0.7	–
CCC1Oc2ccc(OC)cc2-c2cc(CO)ccc21 (stereo not shown) [8d, (6-Ethyl-2-methoxy-6H-benzo[c]chromen-9-yl)methanol]	51.8 ± 9.2	0.6	45.9 ± 20.3	0.7	30 ± 3.7	–	71.4 ± 1.1	0.4	–
CC(C)c1ccc2c(c1)OC(C)(C)c1ccc(CO)cc1-2 [10g, (3-Isopropyl-6,6-dimethyl-6H-benzo[c]chromen-9-yl)methanol]	14.2 ± 4.2	1.6	19.1 ± 1.1	1.1	–	22 ± 7.1	21.2 ± 7.1	1	–
COc1ccc2c(c1)-c1cc(CO)ccc1C(C)(C)O2 [compound 1, pulchrol]	18.5 ± 9.6	–	59.2 ± 11.8	–	–	–	–	–	IC50 [6]: 77.7 µM; T. cruzi SI (selectivity index, cytotoxicity/anti-protozoal activity) [1]: 1.7; L. brasiliensis SI (selectivity index, cytotoxicity/anti-protozoal activity) [2]: 0.5; IC50 [5]: 30.7 ± 1.1 µM; L. amazoniensis SI (selectivity index, cytotoxicity/anti-protozoal activity) [4]: 0.4
CCCCCc1cc(O)c2c(c1)OC(C)(C)c1ccc(C)cc1-2 [Cannabinol]	–	–	–	–	–	–	–	–	affinity for the CB2 receptor compared to THC [7]: 10 times
COc1ccc2c(c1)-c1cc(CO)ccc1CO2 [8a, (2-Methoxy-6H-benzo[c]chromen-9-yl)methanol]	–	1.3	248 ± 54.1	0.3	82.6 ± 9.5	–	132 ± 29.3	0.6	IC50 ([1]; Trypanosoma cruzi, read-out: T. cruzi IC50, epimastigotes, 72 h, average ± SD of at least three experiments): 66.6 µM; IC50 [1, 13]: 66 ± 18.2 µM
CCCCC1(CCCC)Oc2ccc(OC)cc2-c2cc(CO)ccc21 [8g, (6,6-Dibutyl-2-methoxy-6H-benzo[c]chromen-9-yl)methanol]	22.8 ± 8.5	1.5	29.3 ± 1.4	1.2	–	35.3 ± 17.5	25.4 ± 1.1	1.4	–
CC(C)c1ccc2c(c1)-c1cc(CO)ccc1C(C)(C)O2 [10f, (2-Isopropyl-6,6-dimethyl-6H-benzo[c]chromen-9-yl)methanol]	12.4 ± 3.5	0.7	18.1 ± 0.7	0.5	–	8.9 ± 3.5	15.6 ± 2.8	0.6	–
CCCCCc1ccc2c(c1)-c1cc(CO)ccc1C(C)(C)O2 [10h, (6,6-Dimethyl-2-pentyl-6H-benzo[c]chromen-9-yl)methanol]	6.4 ± 0.3	2	16.4 ± 0.3	0.8	–	12.9 ± 3.2	16.8 ± 1.9	0.8	–
COc1cccc2c1-c1cc(CO)ccc1C(C)(C)O2 [10b, (1-Methoxy-6,6-dimethyl-6H-benzo[c]chromen-9-yl)methanol]	92.5 ± 14.8	0.5	48.1 ± 18.5	1	–	48.1 ± 18.5	180 ± 21.9	0.3	–
O=C(Cn1ccnc1[N+](=O)[O-])NCc1ccccc1 [Benznidazole, reference compound]	19.2 ± 7.7	–	–	–	–	–	–	–	T. cruzi SI (selectivity index, cytotoxicity/anti-protozoal activity) [1]: 3.9; IC50 [5]: 74.7 ± 9.1 µM
CCC1(CC)Oc2ccc(OC)cc2-c2cc(CO)ccc21 [8f, (6,6-Diethyl-2-methoxy-6H-benzo[c]chromen-9-yl)methanol]	10.4 ± 0.3	4.2	46.9 ± 5	0.9	43.6 ± 15.1	–	36.9 ± 3.4	1.2	–
